Results reported in patent publication US8338475B2, “Anti-proliferative pharmaceutical composition” (BioCis Pharma Oy, priority 2003, dated 2012).

Legend:
Assay type in all cases: cell-based, human
cell lines = assay: Proliferation assay, statements on the cell lines as a group; details: all three studied transformed cell lines; 44 h; pH 6.5 (FIG. 4)
Protocol: The cells were cultured for 44 h with or without 2 μM camptothecin (CPT) at pH 6.5 or 7.4 conditions. After a 2-h incubation with the proliferation assay reagent, the absorbance at 490 nm was recorded. Cells were cultured in a density of 15,000 cells (K562, HT-1080, HK293) or 75,000 cells (the other cells) in a volume of 150 μl.
Three cell lines were cultured with cis-UCA and/or 1 μM camptothecin at a density of […] per well (100 μl) for 44 h in pH 6.5 medium. Blank wells with all the cis-UCA concentrations but without cells were included and their absorbance subtracted from those of the corresponding test wells.
Transformed tumour cell lines WM 266-4 and A2058 (cutaneous melanoma), HT-1080 (epithelial fibrosarcoma), HeLa (epithelial adenocarcinoma of cervix), HK293 (kidney epithelial cells) and non-transformed cell line HSF (skin fibroblast from a healthy volunteer donor) of human origin have been described earlier (Li et al. 2003). […]
The proliferation activity of cultured cell lines was quantified in flat-bottom 96-well plates with a modified colorimetric assay based on a tetrazolium derivative (CellTiter 96 Aqueous One Solution Cell Proliferation Assay, Promega). The cells were cultured in the presence of camptothecin and/or cis-UCA for 20 to 92 h, then the proliferation reagent was added for 2 h, and the absorbance at 490 nm was measured in a plate reader. […]

HeLa cells = assay: Monitoring of intracellular pH (BCECF, flow cytometry), HeLa cells
Protocol: The cells were labelled with BCECF and placed in pH-adjusted buffer solutions with or without various concentrations of cis-UCA. Left panels, calibration of BCECF fluorescence intensity of nigericin-treated cells in high-potassium buffer as a function of buffer pH. Right panels, intracellular pH values in buffers with or without various concentrations of cis-UCA. All test buffers were adjusted to pH 7.4 (%) or pH 6.5 (+) after the addition of cis-UCA. Results were calculated using the corresponding calibration curve on the left.
Intracellular pH in the cell lines in the presence of cis-UCA was measured with the pH-sensitive fluorescent dye 2′,7′-bis-(2-carboxyethyl)-5-(and-6)-carboxyfluorescein (BCECF, acetoxymethyl ester; Molecular Probes, Leiden, The Netherlands) by flow cytometry. Two million cells were incubated in 5 ml DMEM medium (Invitrogen), pH 7.4, containing 0.35 μM BCECF at 37° C. for 30 min, washed once in sodium phosphate buffer (50 mM NaH2PO4/Na2HPO4, 43 mM NaCl), pH 7.4, and resuspended in 0.3 ml saline. Twenty μl of the cell suspension was pipetted into flow cytometry tubes. […]
Calibration of intracellular pH in situ was performed using the K^+/H^+ ionophore nigericin (Molecular Probes) in high-potassium buffers. […] Exact intracellular pH values were calculated from mean BCECF fluorescence intensities by reference with nigericin-clamped calibration cells. […]

caspase-3 = assay: Determination of caspase-3 activity in A2058 melanoma cells; details: 30 mM cis-UCA in pH 6.5 medium, at 2 h
Protocol: The cells were allowed to attach to culture flasks at 5×10^6 cells per 7 ml of medium overnight. The medium was then changed to new medium adjusted to pH 6.5 with or without 30 mM cis-UCA. The cells were incubated for 30 min to 18 h, released with trypsin-EDTA, and lysed for caspase-3 assay. After subtracting the blank values, the mean caspase-3 activity from the cis-UCA-treated cells was divided by the mean value from the corresponding control cells with the same incubation time. The data are the mean±SD from three parallel reactions in the caspase-3 assay.
Caspase-3 is a proteolytic enzyme that has a central role in the apoptotic cascade. The colorimetric assay is based on the hydrolysis of the peptide substrate acetyl-Asp-Glu-Val-Asp p-nitroanilide (Ac-DEVD-pNA) by caspase-3, resulting in the release of p-nitroaniline (pNA).
Cells grown in normal medium were counted and divided into separate cell culture flasks containing 1 μM CPT, 10 mM cis-UCA, or both, in pH 6.5 medium. […] Caspase-3 activity was measured in cell lysates. […] After washing with ice-cold PBS, the counted cells were resuspend in cell lysis buffer (50 mM Hepes, pH 7.4, 5 mM CHAPS, and 5 mM dithiotreitol) in a density of 10^8 cells/ml, incubated on ice for 15-20 min, and the cell lysates pelleted at 15,000×g for 20 min at 4° C. […] Absorbance of the formed end product p-nitroaniline (pNA) was recorded at 405 nm after 2 and 17 h.

## O=C(O)/C=C\c1c[nH]cn1 [cis-UCA, cis-urocanic acid]
Cell lines
  concentration at which proliferation was inhibited: ≥ 3 mM
HeLa cells; extracellular pH 6.5, highest cis-UCA concentration (30 mM)
  decrease of intracellular pH: about 0.25 pH units
HeLa cells; extracellular pH 7.4, cis-UCA up to 30 mM
  intracellular pH with escalating concentrations: remained almost constant
caspase-3
  peak caspase-3 activity compared to cells treated with pH 6.5 medium only: 380%
